Common to all, as to assay type: physicochemical
The nature of series [1]: Ground state electronic absorption spectra (UV-Vis) in DMF. The following applies: for log ε at λmax / λmax (Q band absorption): in DMF. As for the experimental part: Electronic absorption, which is measured by UV-Vis spectroscopy, is one of the best spectroscopic techniques for determination of Pc formation and characterization of Pc compounds. Generally, two absorption bands are observed for Pc structures in their electronic absorption spectra. One band, known as Q, is observed at around 600-750 nm due to the π→π* transitions from the highest occupied molecular orbital (HOMO) to the lowest unoccupied molecular orbital (LUMO) of the Pc ring, while the other band, known as B, or the Soret band, is observed at around 300-450 nm due to transitions from deeper it levels to the LUMO. The ground state electronic absorption spectra of the studied novel Pcs were measured in DMF solution.
The ground state electronic absorption spectra show monomeric behavior evidenced by single (narrow) Q band absorptions, which is typical for metallated complexes. The Q bands appear around 680 nm for the symmetric Pc2 and both asymmetric Pc3 and Pc4 in DMF (Table 1). On the other hand, the non-peripheral Pc5 show approximately 20 nm red-shifted Q band absorption at 700 nm when compared to the peripheral counterparts in the solvent (Table 1). The observed red spectral shifts are typical for Pc molecules with substituents at the non-peripheral positions and are presumably due to linear combinations of the atomic orbitals (LCAO) coefficients at the non-peripheral positions of the HOMO being greater than those at the peripheral positions. As a result, the HOMO level is destabilized more at the non-peripheral site than it is at the peripheral one. Essentially, the energy gap (ΔE) between the HOMO and LUMO becomes smaller, resulting in a bathochromic shift. The 49 nm blue shift for AzaPc1 is caused by the additional nitrogen atoms instead of CH groups in the Pc macrocyclic system. The B-bands are broad due to the superimposition of the B1 and B2 bands in the 340 to 380 nm region.

Series [2] can be described thus: Fluorescence excitation and emission spectra in DMF. The note with it: for Stokes shift ΔStokes: difference between excitation and emission maxima. As for the experimental part: Fluorescence behaviors of the AzaPc1/Pc2-Pc5 compounds were evaluated in DMF solutions. FIGS. 12A-12E show absorption, fluorescence emission and excitation spectra of these complexes.
Excitation maxima appear at 629 nm for AzaPc1, 679 nm for Pc2, 678 nm for Pc3, 682 nm for Pc4 and 700 nm for Pc5 in DMF. Emission maxima appear at 639 nm, 683 nm, 686 nm, 688 nm and 707 nm for AzaPc1/Pc2-Pc5, respectively. The observed Stokes' shifts, which are differences between the excitation and emission wavelength maxima, are between 4 and 10 nm for all of the zinc (II) complexes (Table 1). The observed Stokes' shifts are consistent with those of typical zinc (II) phthalocyanine complexes.

Series [3] is described as follows: Fluorescence quantum yield determination. The following applies: DMF per text (Table 2 title prints DMSO). From the text: Fluorescence emission occurs when an orbital electron of a photosensitizer relaxes from its singlet state to ground state upon emitting a photon of light. Fluorescence quantum yield (ΦF) indicates a measure of the efficiency of the fluorescence process and is defined as the ratio of the number of photons emitted to the number of photons absorbed. The fluorescence quantum yields (ΦF) may be determined using established methods described in existing literature. The ΦF values of the present AzaPc1/Pc2-Pc5 compounds are typical for those phthalocyanine compounds (Table 2). Particularly, ΦF values were measured to be 0.11 for AzaPc1, 0.16 for Pc2, 0.17 for Pc3, 0.14 for Pc4 and 0.11 for Pc5 in the exemplary DMF solvent system.

Series [4] in a line: Fluorescence lifetime by time correlated single photon counting (TCSPC). The note with it: DMF. As for the experimental part:
Fluorescence lifetime (τF) refers to the average time that a molecule stays in its excited state before returning to its ground state by photon emission. The fluorescence lifetime values of the AzaPc1/Pc2-Pc5 compounds were determined by using time correlated single photon counting (TCSPC). All time-resolved fluorescence studies were carried out for the exemplary compounds in solution in DMF, and the fluorescence decays of the macrocycles were concluded in mono exponential curves.

The nature of series [5]: Singlet oxygen quantum yield, chemical method with DPBF quencher. The following applies: DMF, 414 nm. From the text:
Transferring of energy from a triplet state of a photosensitizer such as Pc to ground state molecular oxygen leads to the production of singlet oxygen. There is a necessity of high efficiency of energy transfer between the excited triplet state of photosensitizer and the ground state of oxygen in order to generate large amounts of singlet oxygen, essential for PDT applications. The singlet oxygen quantum yield (ΦA) values give the amount of the generated singlet oxygen. This value is an indication of the potential provided by the compounds as photosensitizers in applications where singlet oxygen is required. The ΦΔ values for AzaPc1/Pc2-Pc5 were determined in DMF by a chemical method using 1,3-diphenylisobenzofuran (DPBF) as a quencher. The disappearance of DPBF at 414 nm was monitored using UV-Vis spectrophotometer. Many factors can be responsible for the magnitude of the determined singlet oxygen quantum yield, including triplet excited state energy, ability of substituents and solvents to quench the singlet oxygen, the triplet excited state lifetime and the efficiency of the energy transfer between the triplet excited state and the ground state of oxygen.

A short description of series [6]: Photodegradation under light irradiation. The note with it: DMF. From the text: Photodegradation is an indicator of the stability of compounds, which is useful for determining the photosensitizing ability of the compounds as PDT agents. The stability of photosensitizers under light irradiation is important for photochemical processes such as PDT because photosensitizers need to survive for a specific period in the body. Photodegradation degree can be detected by photodegradation quantum yield (Φd), which depends on structure, light intensity, solvent used and concentration of a compound of interest. Photodegradation of a compound under light irradiation can be used to study the compound stability, which is important for those molecules intended for the application in photocatalytic reactions. Collapse of absorption spectra without any distortion of the shape of the absorption spectra confirms photo-degradation not associated with photo-transformation into different forms of Pcs absorbing light in the visible region. The spectral changes for all of the exemplary AzaPc1/Pc2-Pc5 compounds were determined in response to light irradiation, and photodegradation occurred without phototransformation, because only Q and B bands were decreased, i.e., no new band formation was observed.
Pc derivatives and their macrocyclic analogs generate singlet oxygen when they are illuminated by an appropriate light. The formed […] via photooxidation reactions. Generally, photodegradation of Pc/Pc-analog compounds by light irradiation results in formation of the phthalamide residue. The photodegradation behavior of AzaPc1/Pc2-Pc5 in DMF were determined. The Φd values of these novel systems are on the order of 10^−4 (Table 2), consistent with values for other Pcs containing different metals and substituents.

Series [7] in a line: Aggregation studies (UV-Vis) in organic solvents and at different concentrations. The text has this: Macrocycle Pcs generate high aggregation tendencies due to the intermolecular interactions that take place between their 18 π-electrons. Accordingly, this self-association process would minimize their solubility in most solvent systems and therefore affect their spectroscopic, photophysical, photochemical, and electrochemical properties. Generally, aggregation is highly dependent on the concentration, temperature, nature of the substituents and/or their position and orientation with respect to the Pc skeleton, nature of the solvent media, and the central metal ion in the Pc-cores.
Pc molecules can form two types of aggregates in dissolved systems—H-type and J-type-depending on the nature, position and/or orientation of the substituents. In general, Pcs form H-type aggregates in solution, whereas J-type aggregates occur rarely. The formation of J-type aggregates among Pc structures is significant, since J-type aggregation is photoactive, while H-type aggregation is not.
The aggregation properties for the AzaPc1/Pc2-Pc5 compounds were determined in different organic solvents, namely, DCM, chloroform, DMF, DMSO, ethanol, methanol, THF and toluene.
Aggregation behaviors for the AzaPc1/Pc2-Pc5 compounds were also investigated in DMF at different concentrations in order to establish a suitable concentration for further photophysical/photochemical studies.

Turning to `C#CCOCc1cc(C)cc(COCC#C)c1Oc1nc2c(nc1Oc1c(COCC#C)cc(C)cc1COCC#C)C1=Nc3c4nc(Oc5c(COCC#C)cc(C)cc5COCC#C)c(Oc5c(COCC#C)cc(C)cc5COCC#C)nc4c4[n]3[Zn][n]3c(c5nc(Oc6c(COCC#C)cc(C)cc6COCC#C)c(Oc6c(COCC#C)cc(C)cc6COCC#C)nc5c3=NC3=NC(=N4)c4nc(Oc5c(COCC#C)cc(C)cc5COCC#C)c(Oc5c(COCC#C)cc(C)cc5COCC#C)nc43)=NC2=N1` [AzaPc1], the “Blue shift of Q band absorption” value in series [1] (DMF, aza analogue versus Pc macrocycle) is 49 nm. Besides, in series [1], the “log ε at λmax” value came to 5.07 and the “λmax (Q band absorption)” value is recorded as 629 nm. Moreover, in series [2], the “λEm (emission maximum)” value was found to be 639 nm, the “λEx (excitation maximum)” value is given as 629 nm and the “Stokes shift ΔStokes” value was determined as 10 nm. Moreover, in series [3], the “Fluorescence quantum yield ΦF” value came out at 0.14. In addition, the “Fluorescence lifetime τF” value in series [4] is 2.46 ns. The “Singlet oxygen quantum yield ΦΔ” value in series [5] stood at 0.63. Besides, the “Photodegradation quantum yield Φd (×10^−4)” value in series [6] is 4.30 ×10^−4.
For the compound `C#CCOCc1cc(C)cc(COCC#C)c1Oc1ccc2c(c1)C1=NC2=Nc2c3cc(Oc4c(COCC#C)cc(C)cc4COCC#C)ccc3c3[n]2[Zn][n]2c(c4ccc(Oc5c(COCC#C)cc(C)cc5COCC#C)cc4c2=NC2=NC(=N3)c3cc(Oc4c(COCC#C)cc(C)cc4COCC#C)ccc32)=N1` [Pc4], the “log ε at λmax” value in series [1] was 5.21. In series [2], the “λEm (emission maximum)” value turned out to be 688 nm, the “λEx (excitation maximum)” value came to 682 nm and the “Stokes shift ΔStokes” value is 6 nm. The Aggregation in methanol result in series [7] is “small H-type aggregates were detected”. The “Fluorescence quantum yield ΦF” value in series [3] amounted to 0.14. The “Fluorescence lifetime τF” value in series [4] stood at 3.37 ns. Further, in series [5], the “Singlet oxygen quantum yield ΦΔ” value turned out to be 0.57. Besides, the “Photodegradation quantum yield Φd (×10^−4)” value in series [6] was 1.12 ×10^−4.
On to `C#CCOCc1cc(C)cc(COCC#C)c1Oc1cc2c(cc1Cl)C1=Nc3c4cc(Oc5c(COCC#C)cc(C)cc5COCC#C)c(Cl)cc4c4[n]3[Zn][n]3c(c5cc(Cl)c(Oc6c(COCC#C)cc(C)cc6COCC#C)cc5c3=NC3=NC(=N4)c4cc(Oc5c(COCC#C)cc(C)cc5COCC#C)c(Cl)cc43)=NC2=N1` [Pc3], for which the “log ε at λmax” value in series [1] is 5.33. Also, in series [2], the “λEm (emission maximum)” value is 686 nm, the “λEx (excitation maximum)” value is listed as 678 nm and the “Stokes shift ΔStokes” value turned out to be 8 nm. In addition, the “Fluorescence quantum yield ΦF” value in series [3] came to 0.17. In addition, in series [4], the “Fluorescence lifetime τF” value is given as 2.84 ns. Also, the “Singlet oxygen quantum yield ΦΔ” value in series [5] stood at 0.60. The “Photodegradation quantum yield Φd (×10^−4)” value in series [6] is recorded as 1.40 ×10^−4.
With `[Zn+2].c1ccc2c(c1)-c1nc-2nc2[n-]c(nc3nc([n-]c4nc(n1)-c1ccccc1-4)-c1ccccc1-3)c1ccccc21` [Std-ZnPc, zinc(II) phthalocyanine, reference compound], in series [1], the “log ε at λmax” value stood at 5.37 and the “λmax (Q band absorption)” value is on record as 670 nm. Moreover, in series [2], the “λEm (emission maximum)” value was 676 nm, the “λEx (excitation maximum)” value turned out to be 670 nm and the “Stokes shift ΔStokes” value is 6 nm. Moreover, the “Fluorescence quantum yield ΦF” value in series [3] is recorded as 0.17. Further, the “Fluorescence lifetime τF” value in series [4] is reported as 1.03 ns. For the same compound, in series [5], the “Singlet oxygen quantum yield ΦΔ” value turned out to be 0.56. Moreover, in series [6], the “Photodegradation quantum yield Φd (×10^−4)” value is 0.23 ×10^−4.
On to `C#CCOCc1cc(C)cc(COCC#C)c1Oc1cc2c(cc1Oc1c(COCC#C)cc(C)cc1COCC#C)C1=Nc3c4cc(Oc5c(COCC#C)cc(C)cc5COCC#C)c(Oc5c(COCC#C)cc(C)cc5COCC#C)cc4c4[n]3[Zn][n]3c(c5cc(Oc6c(COCC#C)cc(C)cc6COCC#C)c(Oc6c(COCC#C)cc(C)cc6COCC#C)cc5c3=NC3=NC(=N4)c4cc(Oc5c(COCC#C)cc(C)cc5COCC#C)c(Oc5c(COCC#C)cc(C)cc5COCC#C)cc43)=NC2=N1` [Pc2], for which the “log ε at λmax” value in series [1] stood at 5.33. In series [2], the “λEm (emission maximum)” value is on record as 683 nm, the “λEx (excitation maximum)” value is 679 nm and the “Stokes shift ΔStokes” value worked out at 4 nm. For the same compound, the “Fluorescence quantum yield ΦF” value in series [3] amounted to 0.16. Moreover, in series [4], the “Fluorescence lifetime τF” value was found to be 3.30 ns. Moreover, the “Singlet oxygen quantum yield ΦΔ” value in series [5] is listed as 0.60. Further, the “Photodegradation quantum yield Φd (×10^−4)” value in series [6] is listed as 1.58 ×10^−4.
